From patent publication US20190343860A1 (Saint Louis University, priority 2016, published 2019)
Where two headings read alike, the source gives them in different places.

Experiments:
[1] = target: T1, mA1AR (Mus musculus, UniProt Q60612); assay: Radioligand binding, membranes of HEK293 cells stably expressing mA1AR; conditions: species m; inhibition of binding at 10 μM
T1 construct: expressed in transfected cells
T1 sequence (Q60612 1-326): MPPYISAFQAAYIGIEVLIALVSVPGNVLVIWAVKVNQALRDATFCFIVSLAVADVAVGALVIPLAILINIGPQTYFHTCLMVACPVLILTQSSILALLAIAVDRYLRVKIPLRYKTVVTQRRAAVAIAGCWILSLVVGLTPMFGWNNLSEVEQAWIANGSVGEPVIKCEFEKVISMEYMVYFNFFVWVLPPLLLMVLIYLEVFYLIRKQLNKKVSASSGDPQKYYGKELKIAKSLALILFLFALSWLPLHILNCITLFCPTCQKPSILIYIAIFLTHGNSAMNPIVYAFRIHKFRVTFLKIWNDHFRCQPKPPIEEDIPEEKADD

[2] = target: T2, mA2AAR (Mus musculus, UniProt Q60613); assay: Radioligand binding, membranes of HEK293 cells stably expressing mA2AAR; conditions: species m; inhibition of binding at 10 μM
T2 construct: expressed in transfected cells

[3] = target: T3, hA3AR (Homo sapiens, UniProt P0DMS8); assay: cAMP assay, inhibition of forskolin-stimulated cAMP in hA3AR-transfected CHO cells; format: cell-based; conditions: species h; percentage of maximal effect of 5′-N-ethylcarboxamidoadenosine 43, each at 10 μM
T3 construct: expressed in transfected cells
T3 sequence (P0DMS8 1-318): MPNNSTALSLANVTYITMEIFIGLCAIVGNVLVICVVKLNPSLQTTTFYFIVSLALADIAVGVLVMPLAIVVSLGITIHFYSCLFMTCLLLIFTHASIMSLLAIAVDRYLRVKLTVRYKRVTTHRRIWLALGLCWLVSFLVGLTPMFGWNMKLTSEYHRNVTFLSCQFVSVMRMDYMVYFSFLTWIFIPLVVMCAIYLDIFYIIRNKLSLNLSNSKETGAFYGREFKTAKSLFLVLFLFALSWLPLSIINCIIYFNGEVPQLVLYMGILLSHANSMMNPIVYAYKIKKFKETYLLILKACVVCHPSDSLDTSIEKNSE

[4] = target: T4, hA1AR (Homo sapiens, UniProt P30542); conditions: species h; inhibition of binding at 10 μM; tested in ref 26; cited from earlier work
T4 construct: expressed in transfected cells
T4 sequence (P30542 1-326): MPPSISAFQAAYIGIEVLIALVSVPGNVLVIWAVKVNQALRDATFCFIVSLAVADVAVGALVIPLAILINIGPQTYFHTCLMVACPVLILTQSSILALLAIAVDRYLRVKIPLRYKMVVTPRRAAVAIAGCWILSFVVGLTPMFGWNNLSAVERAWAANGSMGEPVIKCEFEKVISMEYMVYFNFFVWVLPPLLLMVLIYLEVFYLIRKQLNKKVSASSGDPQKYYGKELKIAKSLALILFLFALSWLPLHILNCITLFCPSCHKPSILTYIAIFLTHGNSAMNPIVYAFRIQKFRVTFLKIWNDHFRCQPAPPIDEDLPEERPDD

[5] = target: T5, hA2AAR (Homo sapiens, UniProt P29274); conditions: species h; inhibition of binding at 10 μM; tested in ref 26; cited from earlier work
T5 construct: expressed in transfected cells

[6] = target: T5, hA2AAR; assay: Radioligand binding, membranes of HEK293 cells stably expressing hA2AAR; conditions: species h; inhibition of binding at 10 μM
[7] = target: T6, mA3AR (Mus musculus, UniProt Q61618); assay: cAMP assay, inhibition of forskolin-stimulated cAMP in mAR-transfected HEK cells; format: cell-based; conditions: species m; percentage of maximal effect of 1a, from concentration-effect curves
T6 construct: expressed in transfected cells
T6 sequence (Q61618 1-319): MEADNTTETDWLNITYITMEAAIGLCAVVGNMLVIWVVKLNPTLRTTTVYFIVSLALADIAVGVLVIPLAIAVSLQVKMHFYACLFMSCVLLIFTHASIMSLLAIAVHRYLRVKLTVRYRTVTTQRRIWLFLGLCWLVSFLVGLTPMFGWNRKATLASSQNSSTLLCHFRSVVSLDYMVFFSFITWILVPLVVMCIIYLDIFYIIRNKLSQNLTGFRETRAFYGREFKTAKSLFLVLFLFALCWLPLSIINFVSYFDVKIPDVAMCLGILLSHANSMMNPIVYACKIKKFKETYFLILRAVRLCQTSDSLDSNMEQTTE

[8] = target: T4, hA1AR; assay: Radioligand binding, membranes of CHO cells stably expressing hA1AR; conditions: species h; inhibition of binding at 10 μM
[9] = Oxaliplatin-induced mechano-hypersensitivity (paw withdrawal threshold, von Frey); format: in vivo, rat; conditions: oxaliplatin 5 days, 10 mg/kg cumulative dose
Excerpt: Mean±SEM, n=6/group, ANOVA with Bonferroni comparisons. *P<0.05 vs. day 0; #P<0.05 vs. vehicle &†P<0.05 vs. Oxaliplatin.

[10] = system: intraepidermal nerve fibers (IENFs); assay: Incidence of intraepidermal nerve fibers (IENFs) in chemotherapy-treated rats; conditions: chemotherapeutic alone; p<0.05 vs. Naive

T2 sequence (Q60613 whole entry): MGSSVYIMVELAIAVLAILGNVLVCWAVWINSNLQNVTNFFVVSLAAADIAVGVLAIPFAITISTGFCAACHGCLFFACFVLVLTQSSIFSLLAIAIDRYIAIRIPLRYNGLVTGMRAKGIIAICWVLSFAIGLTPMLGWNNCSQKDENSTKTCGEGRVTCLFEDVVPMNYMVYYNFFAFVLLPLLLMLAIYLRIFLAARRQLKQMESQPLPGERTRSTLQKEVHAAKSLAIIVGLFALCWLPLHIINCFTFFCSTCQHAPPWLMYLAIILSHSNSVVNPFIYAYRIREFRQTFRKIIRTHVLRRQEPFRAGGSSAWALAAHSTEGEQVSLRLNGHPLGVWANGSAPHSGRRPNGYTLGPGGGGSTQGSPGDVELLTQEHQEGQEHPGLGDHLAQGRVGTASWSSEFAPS
T5 sequence (P29274 whole entry): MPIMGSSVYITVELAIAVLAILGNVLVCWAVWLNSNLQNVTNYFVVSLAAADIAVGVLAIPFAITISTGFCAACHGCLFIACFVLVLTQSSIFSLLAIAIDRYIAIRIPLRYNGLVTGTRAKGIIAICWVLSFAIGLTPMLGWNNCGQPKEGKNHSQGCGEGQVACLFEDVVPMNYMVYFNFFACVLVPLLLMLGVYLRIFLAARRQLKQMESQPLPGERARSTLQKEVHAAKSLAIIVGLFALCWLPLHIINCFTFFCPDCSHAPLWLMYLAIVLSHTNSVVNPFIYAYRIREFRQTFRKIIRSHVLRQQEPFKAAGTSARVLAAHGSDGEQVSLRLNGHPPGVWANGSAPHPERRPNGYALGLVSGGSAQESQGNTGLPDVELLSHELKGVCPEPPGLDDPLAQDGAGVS

For `CNC(=O)[C@@]12C[C@@H]1[C@@H](n1cnc3c(NCc4cccc(Cl)c4)nc(C#Cc4ccccc4)nc31)[C@H](O)[C@@H]2O` [Cmpd 5], which “% inhibition A1” value [1] is on record?
Its value is “(50% ± 5%”.

And the “% inhibition A2A” value [2]?
Its value is “(2% ± 1%)”.

And the “% efficacy” value [3]?
Its value is 101 ± 5.9%.

And the “% inhibition A1” value [4]?
Its value is “(20% ± 3%)”.

What about the “% inhibition A2A” value [5] of the same molecule?
The value was “(27% ± 3%)”.

Which “% inhibition A2A” value [6] does the source give for `CNC(=O)C12CC1C(n1cnc3c(NCc4cccc(Cl)c4)nc(C#Cc4ccc(S(=O)(=O)O)cc4)nc31)C(O)C2O` (stereo not shown) [Cmpd 6] here?
Its value is “(23% ± 3%)”.

And the “% inhibition A2A” value [2]?
The value was “(14% ± 4%)”.

And the “% efficacy” value [3]?
Its value is 98.6 ± 5.7%.

And the “% efficacy” value [7]?
The value was 95.7 ± 19.1%.

Which results are given for `CNC(=O)C12CC1C(n1cnc3c(NCc4cccc(Cl)c4)nc(C#Cc4cccc(S(=O)(=O)O)c4)nc31)C(O)C2O` (stereo not shown) [Cmpd 7]?
% inhibition A1 [8]: (16% ± 3%); % inhibition A2A [6]: (7% ± 6%); % inhibition A1 [1]: (15% ± 2%); % inhibition A2A [2]: (1% ± 1%); % efficacy [3]: 98.2 ± 6.7%; % efficacy [7]: 89.3 ± 7.1%

Which “% inhibition A2A” value [2] does the source give for `CNc1nc(C#Cc2ccccc2)nc2c1ncn2[C@H]1[C@H](O)[C@H](O)[C@@H]2C[C@@H]21` [Cmpd 8] here?
Its value is “(8% ± 3%)”.

And the “% efficacy” value [3]?
The value was 12.6 ± 4.0%.

And the “% inhibition A1” value [4]?
Its value is “(18% ± 1%)”.

What about the “% inhibition A2A” value [5] of the same molecule?
The value was “(18% ± 3%)”.

With `CCNc1nc(C#Cc2ccccc2)nc2c1ncn2[C@H]1[C@H](O)[C@H](O)[C@@H]2C[C@@H]21` [Cmpd 9] as the molecule, how does the “% inhibition A1” value [1] read?
Its value is “(49% ± 6%)”.

What about the “% inhibition A2A” value [2] of the same molecule?
Its value is “(49% ± 2%)”.

And the “% efficacy” value [3]?
The value was 0.8 ± 5.2%.

What about the “% inhibition A1” value [4] of the same molecule?
Its value is “(36% ± 4%)”.

What about the “% inhibition A2A” value [5] of the same molecule?
Its value is “(42% ± 4%)”.

For `O[C@@H]1[C@H](O)[C@@H]2C[C@@H]2[C@H]1n1cnc2c(NCc3cccc(Cl)c3)nc(C#Cc3ccccc3)nc21` [Cmpd 11], which “% efficacy” value [3] is on record?
The value was 13.8 ± 5.1%.

And the “% inhibition A1” value [4]?
Its value is “(37% ± 4%)”.

Which “% efficacy” value [3] does the source give for `O[C@@H]1[C@H](O)[C@@H]2C[C@@H]2[C@H]1n1cnc2c(NCc3cccc(Cl)c3)nc(C#Cc3cccc(Cl)c3)nc21` [Cmpd 12] here?
The value was 4.5 ± 4.9%.

Which “% inhibition A2A” value [2] does the source give for `O[C@@H]1[C@H](O)[C@@H]2C[C@@H]2[C@H]1n1cnc2c(NCc3cccc(Cl)c3)nc(C#Cc3ccc(-c4ccccc4)cc3)nc21` [Cmpd 13] here?
The value was “(0%)”.

What about the “% efficacy” value [3] of the same molecule?
Its value is 3.5 ± 3.2%.

And the “% inhibition A1” value [4]?
Its value is “(48% ± 4%)”.

And the “% inhibition A2A” value [5]?
The value was “(12% ± 7%)”.

Which “% inhibition A1” value [1] does the source give for `O[C@@H]1[C@H](O)[C@@H]2C[C@@H]2[C@H]1n1cnc2c(NCCc3ccccc3)nc(C#Cc3ccccc3)nc21` [Cmpd 14] here?
The value was “(39% ± 6%)”.

And the “% inhibition A2A” value [2]?
Its value is “(13% ± 2%)”.

And the “% efficacy” value [3]?
Its value is 4.1 ± 1.2%.

What about the “% inhibition A1” value [4] of the same molecule?
The value was “(30% ± 8%)”.

And the “% inhibition A2A” value [5]?
Its value is “(22% ± 5%)”.

What does the source list for `O=S(=O)(O)c1ccc(CCNc2nc(C#Cc3ccccc3)nc3c2ncn3[C@H]2[C@H](O)[C@H](O)[C@@H]3C[C@@H]32)cc1` [Cmpd 16]?
% inhibition A1 [8]: (10% ± 5%); % inhibition A2A [6]: (15% ± 3%); % inhibition A1 [1]: (18% ± 2%); % inhibition A2A [2]: (1% ± 2%); % efficacy [3]: 7.2%

For `CNC(=O)C12CC1C(n1cnc3c(NCCc4ccccc4)nc(C#Cc4ccccc4)nc31)C(O)C2O` (stereo not shown) [Cmpd 17], which “% inhibition A1” value [8] is on record?
Its value is “(11% ± 3%)”.

What about the “% inhibition A2A” value [6] of the same molecule?
Its value is “(32% ± 4%)”.

And the “% inhibition A1” value [1]?
The value was “(25% ± 5%)”.

And the “% inhibition A2A” value [2]?
Its value is “(1% ± 1%)”.

And the “% efficacy” value [3]?
The value was 105.3 ± 9.8%.

What about the “% efficacy” value [7] of the same molecule?
Its value is 114.6 ± 14.6%.

For `O=C1[O][Pt]2([NH][C@@H]3CCCC[C@H]3[NH]2)[O]C1=O` [oxaliplatin, reference compound], which “Mechano-hypersensitivity (Paw Withdrawal Threshold)” value [9] is on record?
The value was “produces mechano-hypersensitivity”.

What about the “Incidence of IENFs vs. Naive rats” value [10] of the same molecule?
Its value is “statistically significantly fewer IENFs”.
